From US9849170B2, “Microneedle coating composition and microneedle device” (priority 2013, dated 2017) come the findings set out here.

A short description of the series: Blending effect of lysine hydrochloride on stability (L9 orthogonal table). The conditions noted are these: 2.5% or 5.0% lysine hydrochloride blended; 50° C., 2 weeks; least-squares analysis, FIG. 4. In kind it is physicochemical. The procedure:
A Japanese encephalitis vaccine antigen application solution comprising 70% by mass of a mixture of arginine and an acid, where the blending ratio of each component (unit: % by mass) and the molar ratio of arginine and the acid are shown in Table 7, was applied onto microneedles, and the blending effect of the lysine hydrochloride was evaluated using an L9 orthogonal table. In Table 7, the numerical values in parentheses for each component denote the blending ratios (unit: % by mass) after removal of the volatile component.
A PBS solution of a Japanese encephalitis vaccine antigen was used as a bulk drug, this bulk drug was concentrated by ultrafiltration, and a predetermined amount of an additive was added to the concentrate, followed by mixing to obtain an application solution for microneedles. […] After drying, the microneedles were sealed in MoistCatch (trade name, Kyodo Printing Co., Ltd.) together with PharmaKeep (trade name, Mitsubishi Gas Chemical Company, Inc.), and the stability under each temperature condition was evaluated. […] For the specific activity level of each sample preserved at 50° C. for 2 weeks, the degree of influence by blending of lysine hydrochloride on the specific activity was analyzed by a least-squares method. […]

Turning to `Cl.NCCCC[C@H](N)C(=O)O` [lysine hydrochloride], the “degree of influence on the specific activity” value is on record as “high”.
